Data published in the supplement of paper PMC10307832.

What was measured:
Assay in all cases: relative viability (nuclei count vs DMSO), 5 days (fraction); higher = more cells survive
[1] = compound: CN[C@@H]1C[C@H]2O[C@@](C)([C@@H]1OC)n1c3ccccc3c3c4c(c5c6ccccc6n2c5c31)C(=O)NC4 [Staurosporine] + Nc1nc2[nH]cc(CCc3ccc(C(=O)N[C@@H](CCC(=O)O)C(=O)O)cc3)c2c(=O)[nH]1 [Pemetrexed] (partner 0.2 µM)
In short: (§1)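 Five library-drug doses in √10 steps were combined with a fixed anchor-drug dose, or a single drug was given alone, by pin tool to lung cancer cell lines in 1536-well plates the day after seeding. Nuclei were stained and counted after 5 days. Relative viability is the nuclei count in treated wells over that in vehicle wells, taken as the median of duplicate plates.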

[2] = compound: O=c1[nH]cc(F)c(=O)[nH]1 [5-Fluorouracil] + CC(C)C[C@H](NC(=O)[C@H](Cc1ccccc1)NC(=O)c1cnccn1)B(O)O [Bortezomib] (partner 0.002 µM)
In short: as §1

[3] = compound: O=c1[nH]cc(F)c(=O)[nH]1 [5-Fluorouracil] + CS(=O)(=O)CCNCc1ccc(-c2ccc3ncnc(Nc4ccc(OCc5cccc(F)c5)c(Cl)c4)c3c2)o1 [Lapatinib] (partner 2 µM)
In short: as §1

[4] = compound: O=c1[nH]cc(F)c(=O)[nH]1 [5-Fluorouracil] + Cc1cc(Nc2cc(N3CCN(C)CC3)nc(Sc3ccc(NC(=O)C4CC4)cc3)n2)n[nH]1 [Tozasertib] (partner 0.1 µM)
In short: as §1

Row | Cell Line | relative viability ([1]; first compound 0.005 µM) | relative viability ([1]; first compound 0.01581 µM) | relative viability ([1]; first compound 0.05 µM) | relative viability ([1]; first compound 0.1581 µM) | relative viability ([1]; first compound 0.5 µM) | relative viability ([2]; first compound 0.02 µM) | relative viability ([2]; first compound 0.2 µM) | relative viability ([2]; first compound 0.6325 µM) | relative viability ([2]; first compound 2 µM) | relative viability ([3]; first compound 0.02 µM) | relative viability ([3]; first compound 0.2 µM) | relative viability ([3]; first compound 0.6325 µM) | relative viability ([3]; first compound 2 µM) | relative viability ([4]; first compound 0.02 µM) | relative viability ([4]; first compound 0.2 µM) | relative viability ([4]; first compound 0.6325 µM) | relative viability ([4]; first compound 2 µM)
1 | NCI-H2085 | 0.635 | 0.307 | 0.429 | 0.206 | 0.242 | 1.09 | 1.13 | 0.995 | 0.738 | 0.654 | 0.957 | 0.923 | 0.704 | 0.867 | 0.784 | 0.828 | 0.608
2 | PC-3 [JPC-3] | 0.975 | 0.444 | 0.516 | 0.389 | 0.347 | 0.841 | 0.84 | 0.762 | 0.643 | 0.479 | 0.48 | 0.485 | 0.476 | 0.828 | 0.881 | 0.827 | 0.554
3 | NCI-H838 | 0.205 | 0.148 | 0.144 | 0.111 | 0.112 | 0.732 | 0.794 | 0.637 | 0.281 | 0.918 | 1.03 | 0.433 | 0.271 | 0.267 | 0.251 | 0.243 | 0.183
4 | NCI-H1755 | 0.348 | 0.321 | 0.236 | 0.224 | 0.223 | 0.975 | 0.442 | 0.397 | 0.311 | 1.06 | 0.848 | 0.327 | 0.263 | 0.643 | 0.523 | 0.309 | 0.28
5 | NCI-H1650 | 0.325 | 0.239 | 0.209 | 0.23 | 0.104 | 0.195 | 0.187 | 0.185 | 0.174 | 0.707 | 0.758 | 0.563 | 0.445 | 0.408 | 0.401 | 0.317 | 0.211
6 | NCI-H650 | 0.64 | 0.257 | 0.235 | 0.23 | 0.228 | 0.894 | 0.622 | 0.517 | 0.529 | 0.555 | 0.681 | 0.524 | 0.455 | 0.765 | 0.384 | 0.309 | 0.257
7 | HCC-15 | 0.217 | 0.188 | 0.189 | 0.157 | 0.134 | 1.18 | 1.03 | 0.534 | 0.322 | 0.967 | 0.898 | 0.533 | 0.314 | 0.396 | 0.455 | 0.43 | 0.232
8 | PC-14 | 0.159 | 0.131 | 0.0585 | 0.0487 | 0.048 | 0.876 | 0.897 | 0.818 | 0.516 | 0.305 | 0.433 | 0.327 | 0.292 | 0.54 | 0.618 | 0.599 | 0.453
9 | HOP-62 | 0.267 | 0.133 | 0.134 | 0.113 | 0.0837 | 0.85 | 0.891 | 0.859 | 0.558 | 0.797 | 1.03 | 0.986 | 0.956 | 0.368 | 0.364 | 0.389 | 0.319
10 | NCI-H322M | 0.608 | 0.501 | 0.451 | 0.423 | 0.388 | 1.44 | 1.17 | 1.03 | 0.652 | 0.615 | 0.598 | 0.559 | 0.467 | 0.511 | 0.495 | 0.391 | 0.323
11 | NCI-H661 | 0.901 | 0.667 | 0.542 | 0.353 | 0.186 | 0.669 | 0.816 | 0.759 | 0.804 | 0.482 | 0.526 | 0.558 | 0.51 | 0.365 | 0.355 | 0.342 | 0.319
12 | NCI-H1734 | 0.394 | 0.305 | 0.338 | 0.133 | 0.141 | 0.853 | 1.06 | 0.723 | 0.494 | 1.11 | 1.14 | 0.808 | 0.392 | 0.249 | 0.261 | 0.241 | 0.237
13 | EKVX | 0.197 | 0.139 | 0.189 | 0.255 | 0.141 | 0.786 | – | 0.154 | 0.132 | – | 0.184 | 0.15 | 0.147 | 0.35 | 0.172 | 0.147 | 0.131
14 | NCI-H596 | 0.485 | 0.265 | 0.297 | 0.27 | 0.148 | 1.14 | 0.794 | 0.694 | 0.597 | 1.05 | 0.944 | 0.645 | 0.516 | 0.939 | 0.845 | 0.479 | 0.364
15 | LCLC-97TM1 | 0.185 | 0.111 | 0.186 | 0.149 | 0.117 | 0.53 | 1.03 | 0.396 | 0.12 | 0.693 | 0.857 | 0.617 | 0.272 | 0.223 | 0.271 | 0.181 | 0.199
16 | NCI-H1355 | 0.999 | 0.609 | 0.449 | 0.27 | 0.2 | 1.17 | 1.1 | 0.404 | 0.3 | 0.97 | 0.899 | 0.39 | 0.311 | 0.529 | 0.366 | 0.258 | 0.226

Row | Cell Line | relative viability ([1]; first compound 0.005 µM) | relative viability ([1]; first compound 0.01581 µM) | relative viability ([1]; first compound 0.05 µM) | relative viability ([1]; first compound 0.1581 µM) | relative viability ([1]; first compound 0.5 µM) | relative viability ([2]; first compound 0.02 µM) | relative viability ([2]; first compound 0.2 µM) | relative viability ([2]; first compound 0.6325 µM) | relative viability ([2]; first compound 2 µM) | relative viability ([3]; first compound 0.02 µM) | relative viability ([3]; first compound 0.2 µM) | relative viability ([3]; first compound 0.6325 µM) | relative viability ([3]; first compound 2 µM) | relative viability ([4]; first compound 0.02 µM) | relative viability ([4]; first compound 0.2 µM) | relative viability ([4]; first compound 0.6325 µM) | relative viability ([4]; first compound 2 µM)
17 | EPLC-272H | 0.213 | 0.13 | 0.146 | 0.0971 | 0.0691 | 0.891 | 0.733 | 0.376 | 0.254 | 0.97 | 0.879 | 0.358 | 0.339 | 0.292 | 0.223 | 0.259 | 0.222
18 | NCI-H1651 | 0.613 | 0.426 | 0.274 | 0.156 | 0.159 | 1.05 | 0.873 | 0.464 | 0.406 | 1.04 | 0.701 | 0.471 | 0.435 | 0.626 | 0.602 | 0.543 | 0.441
19 | SW 1573 | 0.297 | 0.34 | 0.204 | 0.0927 | 0.0611 | 1.08 | 1.1 | 0.922 | 0.638 | 1.09 | 1.32 | 0.546 | 0.885 | 0.205 | 0.175 | 0.183 | 0.153
20 | HCC-44 | 0.629 | – | 0.583 | 0.27 | 0.235 | 0.931 | 0.84 | 0.601 | 0.35 | 1.05 | 0.974 | 0.609 | 0.311 | 1.19 | 0.844 | 0.739 | 0.291
21 | NCI-H460 | 0.065 | 0.0547 | 0.0426 | 0.0415 | 0.0101 | 1.34 | 0.488 | 0.141 | 0.0496 | 0.964 | 0.446 | 0.106 | 0.0598 | 0.459 | 0.13 | 0.106 | 0.0388
22 | SK-LU-1 | 0.416 | 0.182 | 0.167 | 0.163 | 0.176 | 1.12 | 1.34 | 1.18 | 0.981 | 0.904 | 0.956 | 0.846 | 0.704 | 0.412 | 0.408 | 0.346 | 0.338
23 | LOU-NH91 | 0.339 | 0.304 | 0.336 | 0.255 | 0.274 | 0.522 | 0.559 | 0.37 | 0.36 | 0.777 | 0.83 | 0.497 | 0.406 | 0.701 | 0.705 | 0.564 | 0.243
24 | RERF-LC-KJ | 0.501 | 0.423 | 0.375 | 0.205 | 0.202 | 1.24 | 1.17 | 1.14 | 0.939 | 0.903 | 0.824 | 0.846 | 0.704 | 0.499 | 0.432 | 0.416 | 0.414
25 | NCI-H2126 | 0.64 | 0.262 | 0.4 | 0.279 | 0.211 | 0.948 | 0.583 | 0.337 | 0.318 | 0.801 | 0.444 | 0.321 | 0.281 | 0.634 | 0.392 | 0.316 | 0.281
26 | LU99A | 0.178 | 0.168 | 0.16 | 0.114 | 0.119 | 1.08 | 1.14 | 1.01 | 0.593 | 1.03 | 1.03 | 0.77 | 0.551 | 0.325 | 0.243 | 0.269 | 0.207
27 | BEN | 0.831 | 0.749 | 0.523 | 0.261 | 0.303 | 0.779 | 0.869 | 0.655 | 0.655 | 0.658 | 0.628 | 0.615 | 0.602 | 0.43 | 0.479 | 0.491 | 0.535
28 | NCI-H1666 | 0.737 | 0.613 | 0.53 | 0.538 | 0.415 | 0.878 | 0.475 | 0.39 | 0.39 | 0.726 | 0.418 | 0.378 | 0.318 | 0.672 | 0.446 | 0.4 | 0.399
29 | NCI-H1993 | 0.631 | 0.428 | 0.539 | 0.332 | 0.267 | 1.36 | 0.919 | 0.658 | 0.559 | 0.706 | 0.765 | 0.65 | 0.591 | 0.556 | 0.61 | 0.585 | 0.554
30 | NCI-H520 | 0.579 | 0.394 | 0.295 | 0.181 | 0.148 | 0.587 | 0.438 | 0.382 | 0.312 | 0.952 | 0.856 | 0.459 | 0.333 | – | 0.484 | 0.438 | 0.329
31 | HCC-78 | 0.978 | 0.893 | 0.882 | 0.927 | 0.881 | 0.471 | 0.546 | 0.525 | 0.274 | 0.768 | 1.2 | 0.265 | – | 1.46 | 0.395 | 0.37 | 0.264
32 | NCI-H1975 | 0.246 | 0.185 | 0.184 | 0.128 | 0.118 | 0.472 | 0.3 | 0.214 | 0.17 | 0.879 | 1.09 | 0.495 | 0.333 | 0.847 | 0.707 | 0.386 | 0.201
